Laboratory results published in PMC11233548 (Communications Biology, 2024).
Non-standard residues stand in square brackets, D forms with d. Residues, ends and D or L forms follow the SMILES beside them. No end group written: not given here. long linker = not defined here; AEEA = NCCOCCOCC(=O)O

Tests used:
[1] = tested on: HEK cells (pERK, pAkt); type: cell-based, human; conditions: 2 h, EGF 200 ng/mL 10 min; n = 3–8
[2] = biological target: Gal1/B-RBD (Homo sapiens, UniProt P15056); assay: Gal1/B-RBD BRET in HEK cells; type: cell-based
[3] = tested on: Hs 578 T, T24, MIA PaCa-2, and HEK cells; assay: Drug sensitivity score DSS3 from viability data; type: cell-based, human; conditions: 48 h; Fig. 6e
Description: The cells were seeded in low attachment, suspension cell culture 96-well plates (Greiner, #655185). About 2000 T24, MIA PaCa-2, and HEK cells and 5000 Hs 578 T cells were seeded per well in a 50 µL complete growth medium. 24 h later, the cells were treated with 50 µL 2× peptide diluted in the growth medium or 0.2% (v/v) of the positive control, benzethonium chloride stock at 100 mM in H2O (Sigma-Aldrich, #B8879). […] Using a CLARIOstar plate reader the fluorescence signal (λexcitation 560 ± 5 nm and λemission 590 ± 5 nm) was recorded. The florescence signal was normalized against the negative control, here DMSO in buffer, representing 100% viability. Additionally, the data was analyzed using Breeze 2.0 to determine a drug sensitivity score (DSS), a normalized area under the curve (AUC). Here we plot only one of the output values from the Breeze pipeline, the DSS3 value, which was calculated as DSS3=DSS2x2−x1/Cmax−Cmin where DSS2 is given by the equation DSS2=DSS1/loga
And DSS1 is given by the equation DSS1=AUC−t(x2−x1)/(100−t)(Cmax−Cmin)
After dose–response inhibition data fitting with a logistic function, the area under the curve (AUC) was determined. The activity threshold (t) was set to ≥10%. The maximum (Cmax) and minimum (Cmin) concentrations used for screening of the inhibitors, with Cmax = x2 and x1 concentration with minimal activity t. […]

[4] = tested on: MIA PaCa-2 cells; assay: 2D cell viability (alamarBlue), MIA PaCa-2; type: cell-based, human; conditions: 48 h treatment, n = 3
[5] = tested on: Hs 578 T cells (pERK, pAkt); assay: Immunoblot of EGF-induced pERK and pAkt in Hs 578 T; type: cell-based, human; conditions: 1–20 µM, 2 h, EGF 200 ng/mL 10 min; HRAS-G12D; n = 3–8
[6] = tested on: T24 cells; assay: 2D cell viability (alamarBlue), T24; type: cell-based, human; conditions: 48 h treatment, n = 3
[7] = tested on: MIA PaCa-2 cells (pERK, pAkt); assay: Immunoblot of EGF-induced pERK and pAkt in MIA PaCa-2; type: cell-based, human; conditions: 2 h, EGF 200 ng/mL 10 min; KRAS-G12C; n = 3–8
[8] = tested on: T24 cells (pERK, pAkt); type: cell-based, human; conditions: n = 3–8
[9] = tested on: H-RasG12V nanoclustering; assay: H-RasG12V nanoclustering-BRET in HEK cells; type: cell-based, human
[10] = tested on: Hs 578 T cells; assay: 2D cell viability (alamarBlue), Hs 578 T; type: cell-based, human; conditions: 48 h treatment, n = 3
[11] = biological target: Gal1; set-up: method as in PMID 24569991, PMID 7890630; conditions: dimerization; read-out: KD, Gal1 dimer; cited from earlier work
[12] = biological target: RBD of Raf proteins; set-up: method as in PMID 27087647; conditions: direct binding; read-out: KD, Gal1 to RBD of Raf proteins; cited from earlier work
[13] = tested on: B-Raf; assay: Split-luciferase KinCon B-Raf biosensor; type: cell-based; conditions: expression 48 h, HEK cells; n = 3
Description: HEK 293-EBNA cells were seeded in a 12-well plate (Greiner Bio-One, #665180) in 1 ml complete DMEM and grown for 24 h. The next day 0.5 µg of KinCon sensor plasmid pcDNA-RlucF1-BRAF-RlucF2 was transfected along with 0.1–0.5 µg of modulator plasmid encoding either SNAP-H-RasG12V or Gal1) using jetPRIME as per manufacturer protocol; pcDNA3.1(−) Thermo Fisher Scientific, #V79520) was used to buffer the total amount of plasmid load per well to 1 µg. After 48 h of expression cells were collected and washed in PBS. Cells from one well of the 12-well plate were resuspended in 200 µL of PBS and 2× 90 µL were pipetted into a white 96-well plate (Nunc, Thermo Fisher Scientific, #236108). Then coelenterazine h was added to a final concentration of 5 µM and the luminescence signal at 480 ± 10 nm was collected for 10 s. The basically background-free signal was normalized against the signal without modulator plasmid.

[14] = tested on: A-RBD-D75A; assay: BRET-titration Gal1/A-RBD-D75A; type: cell-based, human; conditions: versus wild-type, n = 3
Description: We employed the BRET2 system where RLuc8 and GFP2 luminophores were predominantly used as the donor and acceptor, respectively, with coelenterazine 400a as the substrate. A CLARIOstar plate reader from BMG Labtech was used for BRET and fluorescence intensity measurement. The BRET protocol was adapted as described by us[73].
In brief, 150,000–200,000 HEK293-EBNA cells were seeded per well of a 12-well plate and grown for 24 h in 1 mL of complete DMEM. The next day, the cells were transfected with ~1 µg of plasmid DNA per well using a 3 µL jetPRIME transfection reagent. For the donor saturation titration, 25 ng of the donor plasmid was transfected with an acceptor plasmid concentration ranging from 25 to 1000 ng. […]
First, the fluorescence intensity of GFP2 was measured (λexcitation 405 ± 10 nm and λemission 515 ± 10 nm), which is directly proportional to the acceptor expression (RFU). Then 10 µM of coelenterazine 400a (GoldBio, #C-320) was added to the cells, and BRET readings were recorded simultaneously at λemission 410 ± 40 nm (RLU) and 515 ± 15 nm (BRET signal). Emission intensity measured at 410 nm is directly proportional to the donor expression. The raw BRET ratio was calculated as the ratio of BRET signal/RLU. […] The relative expression was calculated as the ratio of RFU/RLU. […]

[15] = tested on: C-Raf; assay: SNAP-tag mediated pull-down from HEK lysates, C-Raf; type: binding, human cell line HEK293-EBNA; conditions: lysates of Gal1-transfected HEK cells; n = 4
Description: (§1) For the pull-down of interactors of L5UR-SNAP and control constructs, HEK293 EBNA cells were plated on 10 cm dishes. For each dish, 5 µg of pDest305-CMV-hGal1 and pEF-L5UR-SNAP, pEF-mutL5UR-SNAP, or pEF-SNAP were transfected. Transfection was done at ≥70% confluency using 2 µL jetPRIME per 1 µg DNA transfected, according to the manufacturer’s instructions. After about 24 h, the growth medium was removed, cells were rinsed twice in cold PBS, and each dish was lysed in 1 mL lysis buffer, consisting of 20 mM HEPES pH 7.5, 4 mM β-mercaptoethanol, 0.05% Igepal, 1× Protease Inhibitor (Thermo Scientific, #A32955) and 1× PhosSTOP (Roche, #04 906 837 001). The cells were scraped and transferred to Eppendorf tubes, then incubated on ice for 30 min, with occasional mixing by inverting the tube. The lysate was cleared by centrifugation for 15 min at 4 °C and 16,363 rcf. Cleared lysate was transferred to a clean tube, 15 µL sample was withdrawn as “Input” for Western blot analysis, and 25 µL of SNAP-capture magnetic beads (New England Biolabs, #S9145S) suspension (diluted 1:1 in lysis buffer) was added. The samples were further incubated for 2 h at room temperature (20–25 °C) on a rotating wheel. […] The samples were resolved on 4–20% SDS-PAGE gels in Tris-Gly buffer and analyzed by Western blotting. […]

[16] = tested on: Gal1; assay: SNAP-tag mediated pull-down from HEK lysates, Gal1; type: binding, human cell line HEK293-EBNA; conditions: lysates of Gal1-transfected HEK cells
Description: as §1

[17] = tested on: ASPP2; assay: SNAP-tag mediated pull-down from HEK lysates, ASPP2; type: binding, human cell line HEK293-EBNA; conditions: lysates of Gal1-transfected HEK cells; n = 4
Description: as §1

[18] = tested on: B-Raf; assay: SNAP-tag mediated pull-down from HEK lysates, B-Raf; type: binding, human cell line HEK293-EBNA; conditions: lysates of Gal1-transfected HEK cells; n = 4
Description: as §1

[19] = tested on: H-RasG12V nanoclustering; assay: Electron microscopy-based analysis of H-RasG12V nanoclustering in BHK cells; type: cell-based, baby hamster kidney (BHK) cells; conditions: membrane sheets of Gal1-expressing BHK cells; n = 15
Excerpt: To quantify the nanoclustering of a component integral to the plasma membrane (PM), the apical PM sheets of baby hamster kidney (BHK) cells expressing a GFP-tagged H-Ras construct were fixed with 4% (w/v) PFA and 0.1% (w/v) glutaraldehyde. GFP anchored to the PM sheets was probed with 4.5 nm gold particles pre-coupled to anti-GFP antibody. Following embedment with methyl cellulose, the PM sheets were imaged using transmission electron microscopy (JEOL JEM-1400). Using the coordinates of every gold particle, Ripley’s K-function calculated the extent of nanoclustering of gold particles within a selected 1 μm^2 PM area: K(r)=An^−2∑i≠jwij1(∥xi−xj∥≤r) Lr−r=Kr/π−r where n gold particles populate in an intact area of A; r is the length between 1 and 240 nm; || ^. || indicates Euclidean distance where 1(^.) = 1 if ||xi − xj|| ≤ r and 1(^.) = 0 if ||xi − xj|| > r; K(r) specifies the univariate K-function. wij^−1 is a parameter used for an unbiased edge correction and characterizes the proportion of the circumference of a circle that has the center at xi and radius ||xi-xj||. Monte Carlo simulations estimate the 99% confidence interval (99% C.I.), which is then used to linearly transform K(r) into L(r) − r. On a nanoclustering curve of L(r) − r vs. r, the peak L(r) − r value is used as summary statistics for nanoclustering and is termed as Lmax. […]

[20] = tested on: catalytic subunit of PI3Kα; assay: SNAP-tag mediated pull-down from HEK lysates, PI3Kα catalytic subunit; type: binding, human cell line HEK293-EBNA; conditions: lysates of Gal1-transfected HEK cells; n = 4
Description: as §1

[21] = tested on: RASSF7; assay: SNAP-tag mediated pull-down from HEK lysates, RASSF7; type: binding, human cell line HEK293-EBNA; conditions: lysates of Gal1-transfected HEK cells; n = 4
Description: as §1

Chain of Gal1/B-RBD (P15056 155-227): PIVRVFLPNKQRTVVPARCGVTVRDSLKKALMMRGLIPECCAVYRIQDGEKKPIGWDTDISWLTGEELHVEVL

Compound: CC(=O)NCC(=O)N[C@@H](CCCNC(=N)N)C(=O)N[C@@H](CCCCN)C(=O)N[C@@H](CCCCN)C(=O)N[C@@H](CCCNC(=N)N)C(=O)N[C@@H](CCCNC(=N)N)C(=O)N[C@@H](CCC(N)=O)C(=O)N[C@@H](CCCNC(=N)N)C(=O)N[C@@H](CCCNC(=N)N)C(=O)N[C@@H](CCCNC(=N)N)C(=O)N1CCC[C@H]1C(=O)N[C@@H](CCC(N)=O)C(=O)NCCOCCOCC(=O)N[C@@H](CO)C(=O)N[C@@H](CCCNC(=N)N)C(=O)N[C@@H](CO)C(=O)N[C@@H](CO)C(=O)N[C@@H](CC(C)C)C(=O)N[C@@H](CCCNC(=N)N)C(=O)N[C@@H](CO)C(=O)N[C@@H](CCCNC(=N)N)C(=O)N[C@@H](Cc1c[nH]c2ccccc12)C(=O)NCC(=O)N[C@@H](CCCNC(=N)N)C(=O)N[C@@H](Cc1ccccc1)C(=O)N[C@@H](CC(C)C)C(=O)N[C@@H](CC(C)C)C(=O)N[C@@H](CCC(N)=O)C(=O)N[C@@H](CCCNC(=N)N)C(=O)NCC(=O)N[C@@H](CO)C(=O)N[C@@H](Cc1c[nH]c2ccccc12)C(=O)N[C@H](C(=O)NCC(=O)N1CCC[C@H]1C(=O)N[C@@H](CCCNC(=N)N)C(N)=O)[C@@H](C)O [TAT-L5URcore] (Ac-GRKKRRQRRRPQ[AEEA]SRSSLRSRWGRFLLQRGSWTGPR-NH2)
- pAkt levels, HEK [1]: slightly induced by TAT-L5URcore, as were pAkt-levels
- pERK levels, HEK [1]: slightly induced
- EC50 [2]: 16 ± 1 µM
- anti-proliferative effect (DSS3) [3]: higher anti-proliferative effect of TAT-L5URcore as compared to TAT-mutL5URcore
- proliferation/viability, MIA PaCa-2 [4]: this was also observed for KRAS-mutant MIA PaCa-2
- EGF-induced pAkt levels, Hs 578 T [5]: reduced EGF-induced cellular pERK-and pAkt-levels in a dose-dependent manner
- EGF-induced pERK levels, Hs 578 T [5]: reduced EGF-induced cellular pERK-and pAkt-levels in a dose-dependent manner
- proliferation/viability, T24 [6]: specifically reduced by TAT-L5URcore
- pAkt levels, MIA PaCa-2 [7]: pAkt-levels were reduced at 20 µM
- pERK levels, MIA PaCa-2 [7]: pERK remained unaffected
- EGF-induced pAkt levels, T24 [8]: reduced EGF-induced cellular pERK-and pAkt-levels in a dose-dependent manner
- EGF-induced pERK levels, T24 [8]: reduced EGF-induced cellular pERK-and pAkt-levels in a dose-dependent manner
- EC50 ([9]; peptide added to HEK cells, 2 h incubation, 37 °C, donor:acceptor 1:5, 200 ng Gal1 plasmid, n = 3): 19 ± 1 µM
- proliferation/viability, Hs 578 T [10]: specifically reduced by TAT-L5URcore

Compound: Gal1: galectin-1, H-Ras nanocluster scaffold
- Kd [11]: 7 µM
- Kd [12]: 0.106 ± 0.04 µM
- luminescence signal of KinCon B-Raf biosensor [13]: likewise reduced the luminescence signal
- BRETtop, Gal1/A-RBD-D75A [14]: significantly reduced
- effect of Gal1 expression on H-RasG12V nanoclustering-BRET ([9]; expression 48 h, donor:acceptor 1:5, n = 4): increased H-RasG12V nanoclustering-BRET in a dose-dependent manner

Compound: L5UR-SNAP: genetic construct with SNAP-tag added via a long linker to the C-terminus of L5UR (LLRPTAASQSRALGPGAPGGSSRSSLRSRWGRFLLQRGSWTGPRCWPRGFQS-{long linker-SNAP‑tag}; reading uncertain)
- pull-down of C-Raf [15]: pulled down
- pull-down of Gal1 [16]: does under those conditions not interact with Gal1
- effect of construct expression on Gal1/B-RBD BRET ([2]; expression (48 h), donor:acceptor 1:10, HEK, n = 3): dose-dependently decreased BRET between Gal1 and the B-RBD
- pull-down of ASPP2 [17]: it was pulled down by L5UR-SNAP
- pull-down of B-Raf [18]: pulled down
- disruption of H-RasG12V nanoclustering (Lmax) [19]: The disruption of H-RasG12V nanoclustering specifically by L5UR-SNAP
- pull-down of catalytic subunit of PI3Kα [20]: pulled down
- pull-down of RASSF7 [21]: as were its two RA-domain containing interaction partners, RASSF7 and RASSF9
- reduction of H-RasG12V nanoclustering-BRET ([9]; expression (48 h), co-transfection of 200 ng Gal1 plasmid, donor:acceptor 1:5, n = 3, Fig. 3c): ~ 33%
- effect of construct expression on H-RasG12V nanoclustering-BRET ([9]; expression (48 h), with co-transfection of 200 ng Gal1 plasmid, donor:acceptor 1:5, n = 3): decreased Gal1-enhanced H-RasG12V nanoclustering-BRET to a similar extent as the untagged L5UR
